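Tested at 5 concentrations; 48 h exposure; 96-well plates; endpoints linearly interpolated, else capped at highest concentration. Definition used: TGI = concentration required for complete inhibition of growth.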
How the values were obtained:
Assay in all cases: inhibition of tumour cell growth, NCI panel, 48 h
SNB-19 CNS = test system: SNB-19 CNS
SK-OV-3 ovarian = test system: SK-OV-3 ovarian
HOP-62 NSCLC = test system: HOP-62 NSCLC
COLO 205 colon = test system: COLO 205 colon
OVCAR-4 ovarian = test system: OVCAR-4 ovarian
KM12 colon = test system: KM12 colon
SF-539 CNS = test system: SF-539 CNS
UACC-257 melanoma = test system: UACC-257 melanoma
MALME-3M melanoma = test system: MALME-3M melanoma
HCT-15 colon = test system: HCT-15 colon
SK-MEL-28 melanoma = test system: SK-MEL-28 melanoma
IGROV1 ovarian = test system: IGROV1 ovarian
SF-295 CNS = test system: SF-295 CNS
NCI-H23 lung = test system: NCI-H23 lung
MDA-N = test system: MDA-N
DU-145 prostate = test system: DU-145 prostate

Row | SMILES | TGI (SNB-19 CNS) [µM] | TGI (SK-OV-3 ovarian) [µM] | TGI (HOP-62 NSCLC) [µM] | TGI (COLO 205 colon) [µM] | TGI (OVCAR-4 ovarian) [µM] | TGI (KM12 colon) [µM] | TGI (SF-539 CNS) [µM] | TGI (UACC-257 melanoma) [µM] | TGI (MALME-3M melanoma) [µM] | TGI (HCT-15 colon) [µM] | TGI (SK-MEL-28 melanoma) [µM] | TGI (IGROV1 ovarian) [µM] | TGI (SF-295 CNS) [µM] | TGI (NCI-H23 lung) [µM] | TGI (MDA-N) [µM] | TGI (DU-145 prostate) [µM]
1 | NC(CCC(=O)NC(CSC(=O)N(O)c1ccccc1)C(=O)NCC(=O)O)C(=O)O (stereo unspecified) | > 1000 | > 1000 | > 1000 | > 1000 | > 1000 | > 1000 | > 1000 | > 1000 | > 1000 | > 1000 | > 1000 | > 1000 | > 1000 | > 1000 | – | –
2 | O=C1C=CC2(O)OCCN(CCO)C2=C1 (stereo unspecified) (tested in a mixture with another compound) | > 100 | > 100 | > 100 | > 100 | > 100 | > 100 | – | > 100 | > 100 | > 100 | > 100 | > 100 | > 100 | > 100 | > 100 | > 100
3 | CN(C)CC1CCCC(CN(C)C)C1=NOC(=O)c1ccccc1 (stereo unspecified) | > 100 | > 100 | > 100 | > 100 | – | > 100 | > 100 | > 100 | > 100 | > 100 | > 100 | > 100 | > 100 | > 100 | – | –
4 | COCn1cnc2c(=O)n(-c3ccc(OC)cc3)c(=S)n(-c3ccc(OC)cc3)c21 | – | > 100 | > 100 | > 100 | > 100 | > 100 | > 100 | > 100 | – | > 100 | > 100 | > 100 | > 100 | > 100 | – | > 100
5 | CC(O)c1ccc[n+](Cc2ccccc2)c1 (stereo unspecified) | > 400 | > 400 | > 400 | > 400 | – | > 400 | > 400 | > 400 | > 400 | > 400 | > 400 | > 400 | > 400 | > 400 | – | –
6 | CC(=O)N(C(C)=O)n1c(-c2ccccc2)n[nH]c1=O | > 100 | > 100 | > 100 | > 100 | > 100 | > 100 | > 100 | > 100 | – | > 100 | > 100 | > 100 | > 100 | > 100 | > 100 | > 100
7 | CSc1sc(=S)sc1C(=O)N(C)c1ccccc1 | > 100 | – | > 100 | > 100 | > 100 | > 100 | > 100 | – | > 100 | > 100 | > 100 | > 100 | > 100 | > 100 | – | –
8 | C#C[C@]1(O)CC[C@H]2[C@@H]3CCC4=C/C(=N/NC(=O)c5cccc6cc7ccccc7nc56)CC[C@@H]4[C@H]3CC[C@@]21CC | > 100 | > 100 | > 100 | > 100 | > 100 | > 100 | > 100 | > 100 | – | > 100 | > 100 | > 100 | – | > 100 | > 100 | > 100
9 | C=CCN1C(=O)/C(=C/c2ccc(C)cc2)NC1=S | > 100 | > 100 | > 100 | > 100 | > 100 | > 100 | > 100 | > 100 | – | > 100 | > 100 | > 100 | > 100 | > 100 | > 100 | > 100
10 | CC(=O)N1C(NN(C)C)CCN1c1ccccc1 (stereo unspecified) | – | > 10 | > 10 | > 10 | > 10 | > 10 | – | > 10 | > 10 | > 10 | > 10 | > 10 | > 10 | > 10 | – | > 10
11 | C/C(=N\NC(=O)c1ccncc1)c1ccccc1F | > 10 | > 10 | > 10 | > 10 | – | > 10 | > 10 | – | > 10 | > 10 | > 10 | > 10 | > 10 | > 10 | > 10 | –
12 | COc1cccc(N2C(=O)/C(=C\c3ccccc3)SC2c2cc(OC)c(OC)c(OC)c2)c1 (stereo unspecified) | > 100 | > 100 | > 100 | > 100 | > 100 | > 100 | – | > 100 | – | > 100 | > 100 | > 100 | > 100 | > 100 | 40.5 | > 100
13 | CCCCCCCCCCCCCCCCOCC(CP(=O)([O-])OCC[n+]1ccccc1)OC (stereo unspecified) | 21.6 | 32.7 | 25.2 | 20.5 | 24.1 | 5.62 | 28.4 | 28.8 | 32.8 | – | 32.2 | 17.6 | 15.4 | 14.8 | – | –
14 | CC(C)C(Sc1nc(-c2ccccc2)c(-c2ccccc2)[nH]1)C(=O)NN (stereo unspecified) | > 100 | > 100 | > 100 | > 100 | > 100 | > 100 | > 100 | > 100 | > 100 | > 100 | > 100 | > 100 | > 100 | > 100 | – | –
15 | COC(=O)NC12CC3CC(CC(F)(C3)C1)C2 | > 100 | > 100 | > 100 | > 100 | – | > 100 | > 100 | > 100 | > 100 | – | > 100 | > 100 | – | > 100 | – | –
16 | CC(C)(C)c1ccc(-n2c3nc(=O)n(-c4ccccc4CO)c(=O)c-3cc3ccccc32)cc1 | > 100 | – | – | > 100 | > 100 | > 100 | 88.1 | > 100 | > 100 | > 100 | > 100 | > 100 | > 100 | > 100 | 62.9 | > 100
